Source: ChEMBL document CHEMBL1201862, “PubChem BioAssay data set” (2004)
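Growth conditions: 96-well plates. Treatment: test compound, 48 hours, 5 concentrations. Analysis: linear interpolation between bracketing concentrations; unreached endpoints set to highest concentration. Here, GI50 denotes the concentration required for 50% inhibition of growth.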 Calls of active or inactive are those of the source. Cut-off read from the data, not from the text of the source: active = GI50 up to about 1.1 µM and inactive = higher.

Columns and labels:
Assay in all cases: NCI-60 cell line screen, 48 h
RPMI-8226 = system: RPMI-8226
SK-OV-3 = system: SK-OV-3
M19-MEL = system: M19-MEL
NCI-H522 = system: NCI-H522
MDA-MB-231 = system: MDA-MB-231
K562 = system: K562
UO-31 = system: UO-31
M14 = system: M14
DU-145 = system: DU-145
SNB-19 = system: SNB-19
KM-20L2 = system: KM-20L2
HOP-92 = system: HOP-92
MOLT-4 = system: MOLT-4
NCI-H460 = system: NCI-H460
UACC-257 = system: UACC-257
TK-10 = system: TK-10
HL-60 = system: HL-60
MDA-MB-435 = system: MDA-MB-435
A549 = system: A549
COLO 205 = system: COLO 205

CC(C)CCCCCCCCCCCCC(=O)NCC(=O)NC1C(O)C(O)C(Nc2[nH]cnc3ncnc2-3)OC1C(O)CO (centres undefined)
GI50 (RPMI-8226): 0.000525 µM (active) | GI50 (SK-OV-3): 0.000671 µM (active) | GI50 (M19-MEL): 0.000211 µM (active) | GI50 (NCI-H522): 0.000664 µM (active) | GI50 (MDA-MB-231): 0.182 µM (active) | GI50 (K562): 0.0436 µM (active) | GI50 (UO-31): 0.000574 µM (active) | GI50 (M14): 0.191 µM (active) | GI50 (DU-145): 0.19 µM (active) | GI50 (SNB-19): 0.000564 µM (active) | GI50 (KM-20L2): 0.000166 µM (active) | GI50 (HOP-92): 0.00049 µM (active) | GI50 (MOLT-4): 0.0121 µM (active) | GI50 (NCI-H460): 0.000541 µM (active) | GI50 (UACC-257): 0.000605 µM (active) | GI50 (TK-10): 0.179 µM (active) | GI50 (HL-60): 0.00057 µM (active) | GI50 (MDA-MB-435): 0.224 µM (active)

COC1OC(CO)C(O)C(O)C1Br (centres undefined)
GI50 (RPMI-8226): > 100 µM (inactive) | GI50 (M19-MEL): > 100 µM (inactive) | GI50 (NCI-H522): > 100 µM (inactive) | GI50 (A549): > 100 µM (inactive) | GI50 (K562): > 100 µM (inactive) | GI50 (M14): > 100 µM (inactive) | GI50 (SNB-19): > 100 µM (inactive) | GI50 (KM-20L2): > 100 µM (inactive) | GI50 (HOP-92): > 100 µM (inactive) | GI50 (MOLT-4): > 100 µM (inactive) | GI50 (NCI-H460): > 100 µM (inactive) | GI50 (UACC-257): > 100 µM (inactive) | GI50 (COLO 205): > 100 µM (inactive) | GI50 (TK-10): > 100 µM (inactive) | GI50 (HL-60): > 100 µM (inactive)

NC(=O)CCC(NC(=O)Cc1ccccc1)C(=O)O.NC(CCC(=O)NC(=O)Cc1ccccc1)C(=O)O (centres undefined)
GI50 (RPMI-8226): > 8130 µM (inactive) | GI50 (SK-OV-3): > 8130 µM (inactive) | GI50 (M19-MEL): > 8130 µM (inactive) | GI50 (NCI-H522): > 8130 µM (inactive) | GI50 (A549): > 8130 µM (inactive) | GI50 (K562): > 8130 µM (inactive) | GI50 (UO-31): > 8130 µM (inactive) | GI50 (M14): > 8130 µM (inactive) | GI50 (SNB-19): > 8130 µM (inactive) | GI50 (KM-20L2): > 8130 µM (inactive) | GI50 (HOP-92): > 8130 µM (inactive) | GI50 (MOLT-4): > 8130 µM (inactive) | GI50 (COLO 205): > 8130 µM (inactive) | GI50 (TK-10): > 8130 µM (inactive) | GI50 (HL-60): > 8130 µM (inactive)

CN(C)CCNC(=O)C1COc2cc(-c3cc(=O)c4ccccc4o3)ccc2O1 (centres undefined)
GI50 (RPMI-8226): 27.9 µM (inactive) | GI50 (SK-OV-3): 23.1 µM (inactive) | GI50 (M19-MEL): > 100 µM (inactive) | GI50 (NCI-H522): 16.6 µM (inactive) | GI50 (A549): 16.9 µM (inactive) | GI50 (K562): 36.7 µM (inactive) | GI50 (UO-31): 74.3 µM (inactive) | GI50 (M14): 18.1 µM (inactive) | GI50 (SNB-19): 23.1 µM (inactive) | GI50 (KM-20L2): 22 µM (inactive) | GI50 (HOP-92): > 100 µM (inactive) | GI50 (MOLT-4): 15.7 µM (inactive) | GI50 (NCI-H460): 38.2 µM (inactive) | GI50 (UACC-257): 18.5 µM (inactive) | GI50 (COLO 205): 16.6 µM (inactive) | GI50 (TK-10): 29.6 µM (inactive) | GI50 (HL-60): 23.9 µM (inactive)

CC/C=C1\N=C(c2ccc(Cl)cc2)OC1=O
GI50 (RPMI-8226): > 100 µM (inactive) | GI50 (SK-OV-3): > 100 µM (inactive) | GI50 (M19-MEL): > 100 µM (inactive) | GI50 (NCI-H522): > 100 µM (inactive) | GI50 (A549): > 100 µM (inactive) | GI50 (K562): > 100 µM (inactive) | GI50 (UO-31): > 100 µM (inactive) | GI50 (M14): > 100 µM (inactive) | GI50 (SNB-19): > 100 µM (inactive) | GI50 (KM-20L2): > 100 µM (inactive) | GI50 (HOP-92): > 100 µM (inactive) | GI50 (MOLT-4): > 100 µM (inactive) | GI50 (NCI-H460): > 100 µM (inactive) | GI50 (UACC-257): > 100 µM (inactive) | GI50 (COLO 205): > 100 µM (inactive) | GI50 (TK-10): > 100 µM (inactive) | GI50 (HL-60): > 100 µM (inactive)

COC1/C=C\C=C(/C)C(=O)NC2=CC(=O)C(N)=C(CC(C)CC(OC)C(O)C(C)C=C(C)C1OC(N)=O)C2=O (centres undefined)
GI50 (RPMI-8226): 0.195 µM (active) | GI50 (SK-OV-3): < 0.0123 µM (active) | GI50 (M19-MEL): < 0.01 µM (active) | GI50 (NCI-H522): 0.0234 µM (active) | GI50 (MDA-MB-231): < 0.0187 µM (active) | GI50 (A549): 0.0216 µM (active) | GI50 (K562): 0.0204 µM (active) | GI50 (UO-31): 0.184 µM (active) | GI50 (M14): 0.0204 µM (active) | GI50 (DU-145): < 0.0199 µM (active) | GI50 (SNB-19): 0.0424 µM (active) | GI50 (KM-20L2): < 0.01 µM (active) | GI50 (HOP-92): 0.0156 µM (active) | GI50 (MOLT-4): 0.15 µM (active) | GI50 (NCI-H460): < 0.01 µM (active) | GI50 (UACC-257): 0.03 µM (active) | GI50 (COLO 205): < 0.01 µM (active) | GI50 (TK-10): 0.321 µM (active) | GI50 (HL-60): 0.0585 µM (active) | GI50 (MDA-MB-435): < 0.0191 µM (active)

Cc1ccc(S(=O)(=O)N2CCC2c2ccccc2)cc1 (centres undefined)
GI50 (RPMI-8226): 66.2 µM (inactive) | GI50 (SK-OV-3): > 100 µM (inactive) | GI50 (M19-MEL): > 100 µM (inactive) | GI50 (NCI-H522): 74 µM (inactive) | GI50 (A549): 67.5 µM (inactive) | GI50 (K562): 41.8 µM (inactive) | GI50 (UO-31): 23.1 µM (inactive) | GI50 (M14): > 100 µM (inactive) | GI50 (SNB-19): 68.7 µM (inactive) | GI50 (KM-20L2): > 100 µM (inactive) | GI50 (HOP-92): 10.1 µM (inactive) | GI50 (MOLT-4): 37.8 µM (inactive) | GI50 (NCI-H460): > 100 µM (inactive) | GI50 (UACC-257): 47.3 µM (inactive) | GI50 (COLO 205): > 100 µM (inactive) | GI50 (TK-10): > 100 µM (inactive) | GI50 (HL-60): 7.13 µM (inactive)
